The target in the data set is ATP-dependent translocase ABCB1 (Homo sapiens, UniProt P08183). The data set can be described thus: TP_TRANSPORTER: increase in Vinblastine intracellular accumulation (Vinblastine: 0.0375 uM, PBA: 1 uM) in KB8-5 cells. Type of data set: functional, cell-based. As to conditions: kb8-5, 1 µM.
ATP-dependent translocase ABCB1, sequence (P08183 whole entry): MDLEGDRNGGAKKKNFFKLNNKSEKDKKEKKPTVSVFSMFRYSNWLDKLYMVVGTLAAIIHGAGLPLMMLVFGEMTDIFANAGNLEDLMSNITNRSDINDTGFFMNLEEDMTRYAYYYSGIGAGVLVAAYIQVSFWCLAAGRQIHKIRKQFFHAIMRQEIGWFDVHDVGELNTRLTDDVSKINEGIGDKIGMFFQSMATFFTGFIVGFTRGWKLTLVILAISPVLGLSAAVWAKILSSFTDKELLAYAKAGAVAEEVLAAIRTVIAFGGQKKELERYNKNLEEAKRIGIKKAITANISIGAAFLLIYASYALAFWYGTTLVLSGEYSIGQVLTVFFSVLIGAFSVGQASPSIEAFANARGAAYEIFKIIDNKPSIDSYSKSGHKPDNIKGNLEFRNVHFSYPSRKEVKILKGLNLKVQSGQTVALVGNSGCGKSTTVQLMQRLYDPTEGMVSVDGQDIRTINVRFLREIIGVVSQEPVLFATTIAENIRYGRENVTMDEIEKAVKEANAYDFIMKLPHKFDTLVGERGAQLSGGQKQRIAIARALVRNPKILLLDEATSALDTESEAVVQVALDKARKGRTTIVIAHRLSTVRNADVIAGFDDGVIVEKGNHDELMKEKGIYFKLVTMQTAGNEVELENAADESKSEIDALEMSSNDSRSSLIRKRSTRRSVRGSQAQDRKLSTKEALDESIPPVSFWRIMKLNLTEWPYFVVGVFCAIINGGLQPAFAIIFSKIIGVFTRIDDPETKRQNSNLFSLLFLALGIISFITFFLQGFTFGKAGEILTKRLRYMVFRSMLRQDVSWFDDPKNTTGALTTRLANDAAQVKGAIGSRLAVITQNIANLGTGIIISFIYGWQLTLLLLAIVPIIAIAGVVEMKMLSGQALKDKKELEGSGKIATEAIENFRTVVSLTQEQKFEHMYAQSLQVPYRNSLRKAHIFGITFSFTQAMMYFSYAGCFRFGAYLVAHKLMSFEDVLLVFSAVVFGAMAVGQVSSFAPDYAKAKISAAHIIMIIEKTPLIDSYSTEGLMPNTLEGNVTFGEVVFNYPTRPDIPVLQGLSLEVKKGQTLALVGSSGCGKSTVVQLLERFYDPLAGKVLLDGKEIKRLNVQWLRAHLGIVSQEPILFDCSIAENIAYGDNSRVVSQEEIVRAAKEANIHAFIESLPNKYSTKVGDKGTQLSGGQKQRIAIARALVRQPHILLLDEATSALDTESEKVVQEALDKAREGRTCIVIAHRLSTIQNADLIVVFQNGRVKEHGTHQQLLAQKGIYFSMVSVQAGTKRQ

For the compound `O=c1c2ccccc2n(CCCn2c3ccccc3c(=O)c3ccccc32)c2ccccc12`, the Inhibition result was “inhibitor [800-900 % inhibition]”.

Source of the values: ChEMBL document CHEMBL2074367, “Characterization of a novel bisacridone and comparison with PSC 833 as a potent and poorly reversible modulator of P-glycoprotein” (Mol Pharmacol, 1997).
